{"source": "patent US7138361B2", "about": "“Herbicidal heterocycles” (E. I. du Pont de Nemours and Company, priority 2000, dated 2006)", "format_in_all_cases": "in vivo", "key": {"[1]": {"system": "barnyardgrass (Echinochloa crus-galli)", "experiment": "Test C flooded paddy test", "conditions": "for Barnyardgrass plant response rating: Flooded Paddy, scale 0 to 100, 0 no effect, 100 complete control; for Plant response rating, Barnyardgrass: flooded paddy test, scale 0 to 100 (0 no effect, 100 complete control)", "method_in_brief": "(§1)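 2-leaf-stage plants, flooded paddy; treated; greenhouse 12–14 days; compared with controls by eye; rated 0–100 (0 none, 100 complete control).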"}, "[2]": {"system": "smallflower flatsedge (Cyperus difformis)", "experiment": "Test C flooded paddy test", "conditions": "for Flatsedge plant response rating: Flooded Paddy, scale 0 to 100, 0 no effect, 100 complete control; for Plant response rating, Flatsedge: flooded paddy test, scale 0 to 100 (0 no effect, 100 complete control)", "method_in_brief": "as §1"}, "[3]": {"system": "duck salad (Heteranthera limosa)", "experiment": "Test C flooded paddy test", "conditions": "for Ducksalad plant response rating: Flooded Paddy, scale 0 to 100, 0 no effect, 100 complete control; for Plant response rating, Ducksalad: flooded paddy test, scale 0 to 100 (0 no effect, 100 complete control)", "method_in_brief": "as §1"}, "rice (Oryza saliva) [4]": {"system": "rice (Oryza saliva)", "experiment": "Test C flooded paddy test", "conditions": "for Rice plant response rating: Flooded Paddy, scale 0 to 100, 0 no effect, 100 complete control; for Plant response rating, Rice: flooded paddy test, scale 0 to 100 (0 no effect, 100 complete control)", "method_in_brief": "as §1"}, "[5]": {"system": "blackgrass (Alopecurus myosuroides)", "experiment": "Test B postemergence", "conditions": "13 to 15 days", "method_in_brief": "(§2)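 Seeds were planted and sprayed preemergence with test chemical in a non-phytotoxic solvent mixture containing surfactant; postemergence plants (2 to 18 cm, 1- to 4-leaf stage) received the same formulation. Greenhouse hold 13 to 15 days, then visual rating versus untreated controls on a 0–100 scale (0 no effect, 100 complete control).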"}, "[6]": {"system": "barnyardgrass (Echinochloa crus-galli)", "experiment": "Test B postemergence", "conditions": "13 to 15 days", "method_in_brief": "as §2"}, "[7]": {"system": "velvetleaf (Abutilon theophrasti)", "experiment": "Test B postemergence", "conditions": "13 to 15 days", "method_in_brief": "as §2"}, "corn (Zea mays) [8]": {"system": "corn (Zea mays)", "experiment": "Test B postemergence", "conditions": "13 to 15 days", "method_in_brief": "as §2"}, "[9]": {"system": "pigweed (Amaranthus retroflexus)", "experiment": "Test B postemergence", "conditions": "13 to 15 days", "method_in_brief": "as §2"}, "[10]": {"system": "giant foxtail (Setaria faberii)", "experiment": "Test B postemergence", "conditions": "13 to 15 days", "method_in_brief": "as §2"}, "[11]": {"system": "wheat (Triticum aestivum)", "experiment": "Test B postemergence", "conditions": "13 to 15 days", "method_in_brief": "as §2"}, "[12]": {"system": "Surinam grass (Brachiaria decumbens)", "experiment": "Test B postemergence", "conditions": "13 to 15 days", "method_in_brief": "as §2"}, "[13]": {"system": "morning glory (Ipomoea hederacea)", "experiment": "Test B postemergence", "conditions": "13 to 15 days", "method_in_brief": "as §2"}, "[14]": {"system": "barnyardgrass (Echinochloa crus-galli)", "experiment": "Test B preemergence", "conditions": "scale 0 to 100, 0 no effect, 100 complete control", "method_in_brief": "as §2"}, "[15]": {"system": "crabgrass (Digitaria sanguinalis)", "experiment": "Test B preemergence", "conditions": "scale 0 to 100, 0 no effect, 100 complete control", "method_in_brief": "as §2"}, "[16]": {"system": "velvetleaf (Abutilon theophrasti)", "experiment": "Test B preemergence", "conditions": "scale 0 to 100, 0 no effect, 100 complete control", "method_in_brief": "as §2"}, "corn (Zea mays) [17]": {"system": "corn (Zea mays)", "experiment": "Test B preemergence", "conditions": "scale 0 to 100, 0 no effect, 100 complete control", "method_in_brief": "as §2"}, "[18]": {"system": "pigweed (Amaranthus retroflexus)", "experiment": "Test B preemergence", "conditions": "scale 0 to 100, 0 no effect, 100 complete control", "method_in_brief": "as §2"}, "[19]": {"system": "giant foxtail (Setaria faberii)", "experiment": "Test B preemergence", "conditions": "scale 0 to 100, 0 no effect, 100 complete control", "method_in_brief": "as §2"}, "[20]": {"system": "lambsquarters (Chenopodium album)", "experiment": "Test B preemergence", "conditions": "scale 0 to 100, 0 no effect, 100 complete control", "method_in_brief": "as §2"}, "[21]": {"system": "cocklebur (Xanthium strumarium)", "experiment": "Test B preemergence", "conditions": "scale 0 to 100, 0 no effect, 100 complete control", "method_in_brief": "as §2"}, "rice (Oryza saliva) [22]": {"system": "rice (Oryza saliva)", "experiment": "Test B preemergence", "conditions": "scale 0 to 100, 0 no effect, 100 complete control", "method_in_brief": "as §2"}, "[23]": {"system": "Surinam grass (Brachiaria decumbens)", "experiment": "Test B preemergence", "conditions": "scale 0 to 100, 0 no effect, 100 complete control", "method_in_brief": "as §2"}, "[24]": {"system": "morning glory (Ipomoea hederacea)", "experiment": "Test B preemergence", "conditions": "scale 0 to 100, 0 no effect, 100 complete control", "method_in_brief": "as §2"}, "[25]": {"conditions": "Rate 125 g/ha, scale 0 (no effect) to 100 (complete control)"}, "[26]": {"conditions": "Rate 500 g/ha, scale 0 to 100, 0 is no effect, 100 is complete control"}}}
{"smiles": "O=C1C(n2ccc(C3CC3)n2)SCN1c1cccc(C(F)(F)F)c1", "note": "(centres unmarked) [Compound 26]", "values": [{"measurement": "Barnyardgrass plant response rating", "setting": "[1]; Rate 250 g/ha", "value": 80}, {"measurement": "Barnyardgrass plant response rating", "setting": "[1]; Rate 500 g/ha", "value": 100}, {"measurement": "Plant response rating, Barnyardgrass", "setting": "[1]; Rate 62 g/ha", "value": 0}, {"measurement": "Plant response rating, Barnyardgrass", "setting": "[1]; Rate 125 g/ha", "value": 50}, {"measurement": "Flatsedge plant response rating", "setting": "[2]; Rate 250 g/ha", "value": 95}, {"measurement": "Flatsedge plant response rating", "setting": "[2]; Rate 500 g/ha", "value": 95}, {"measurement": "Plant response rating, Flatsedge", "setting": "[2]; Rate 62 g/ha", "value": 90}, {"measurement": "Plant response rating, Flatsedge", "setting": "[2]; Rate 125 g/ha", "value": 90}, {"measurement": "Ducksalad plant response rating", "setting": "[3]; Rate 250 g/ha", "value": 100}, {"measurement": "Ducksalad plant response rating", "setting": "[3]; Rate 500 g/ha", "value": 70}, {"measurement": "Plant response rating, Ducksalad", "setting": "[3]; Rate 62 g/ha", "value": 0}, {"measurement": "Plant response rating, Ducksalad", "setting": "[3]; Rate 125 g/ha", "value": 80}, {"measurement": "Rice plant response rating", "setting": "rice (Oryza saliva) [4]; Rate 250 g/ha", "value": 80}, {"measurement": "Rice plant response rating", "setting": "rice (Oryza saliva) [4]; Rate 500 g/ha", "value": 80}, {"measurement": "Plant response rating, Rice", "setting": "rice (Oryza saliva) [4]; Rate 62 g/ha", "value": 0}, {"measurement": "Plant response rating, Rice", "setting": "rice (Oryza saliva) [4]; Rate 125 g/ha", "value": 40}, {"measurement": "Plant response rating, Blackgrass", "setting": "[5]; [25]", "value": 0}, {"measurement": "Plant response rating, Blackgrass", "setting": "[5]; [26]", "value": 0}, {"measurement": "Plant response rating, Barnyardgrass", "setting": "[6]; [25]", "value": 0}, {"measurement": "Plant response rating, Barnyardgrass", "setting": "[6]; [26]", "value": 80}, {"measurement": "Plant response rating, Velvetleaf", "setting": "[7]; [25]", "value": 20}, {"measurement": "Plant response rating, Velvetleaf", "setting": "[7]; [26]", "value": 20}, {"measurement": "Plant response rating, Corn", "setting": "corn (Zea mays) [8]; [25]", "value": 0}, {"measurement": "Plant response rating, Corn", "setting": "corn (Zea mays) [8]; [26]", "value": 70}, {"measurement": "Plant response rating, Pigweed", "setting": "[9]; [25]", "value": 0}, {"measurement": "Plant response rating, Pigweed", "setting": "[9]; [26]", "value": 60}, {"measurement": "Plant response rating, Foxtail, Giant", "setting": "[10]; [25]", "value": 20}, {"measurement": "Plant response rating, Foxtail, Giant", "setting": "[10]; [26]", "value": 50}, {"measurement": "Plant response rating, Wheat", "setting": "[11]; [25]", "value": 0}, {"measurement": "Plant response rating, Wheat", "setting": "[11]; [26]", "value": 0}, {"measurement": "Plant response rating, Surinam grass", "setting": "[12]; [25]", "value": 20}, {"measurement": "Plant response rating, Surinam grass", "setting": "[12]; [26]", "value": 20}, {"measurement": "Plant response rating, Morningglory", "setting": "[13]; [25]", "value": 0}, {"measurement": "Plant response rating, Morningglory", "setting": "[13]; [26]", "value": 10}, {"measurement": "Plant response rating, Barnyardgrass", "setting": "[14]; Preemergence, Rate 500 g/ha", "value": 100}, {"measurement": "Plant response rating, Barnyardgrass", "setting": "[14]; preemergence, Rate 125 g/ha", "value": 100}, {"measurement": "Plant response rating, Crabgrass", "setting": "[15]; Preemergence, Rate 500 g/ha", "value": 100}, {"measurement": "Plant response rating, Crabgrass", "setting": "[15]; preemergence, Rate 125 g/ha", "value": 100}, {"measurement": "Plant response rating, Velvetleaf", "setting": "[16]; Preemergence, Rate 500 g/ha", "value": 0}, {"measurement": "Plant response rating, Velvetleaf", "setting": "[16]; preemergence, Rate 125 g/ha", "value": 0}, {"measurement": "Plant response rating, Corn", "setting": "corn (Zea mays) [17]; Preemergence, Rate 500 g/ha", "value": 70}, {"measurement": "Plant response rating, Corn", "setting": "corn (Zea mays) [17]; preemergence, Rate 125 g/ha", "value": 10}, {"measurement": "Plant response rating, Pigweed", "setting": "[18]; Preemergence, Rate 500 g/ha", "value": 100}, {"measurement": "Plant response rating, Pigweed", "setting": "[18]; preemergence, Rate 125 g/ha", "value": 100}, {"measurement": "Plant response rating, Foxtail, Giant", "setting": "[19]; Preemergence, Rate 500 g/ha", "value": 100}, {"measurement": "Plant response rating, Foxtail, Giant", "setting": "[19]; preemergence, Rate 125 g/ha", "value": 100}, {"measurement": "Plant response rating, Lambsquarters", "setting": "[20]; Preemergence, Rate 500 g/ha", "value": 100}, {"measurement": "Plant response rating, Lambsquarters", "setting": "[20]; preemergence, Rate 125 g/ha", "value": 100}, {"measurement": "Plant response rating, Cocklebur", "setting": "[21]; Preemergence, Rate 500 g/ha", "value": 0}, {"measurement": "Plant response rating, Cocklebur", "setting": "[21]; preemergence, Rate 125 g/ha", "value": 0}, {"measurement": "Plant response rating, Rice", "setting": "rice (Oryza saliva) [22]; Preemergence, Rate 500 g/ha", "value": 80}, {"measurement": "Plant response rating, Rice", "setting": "rice (Oryza saliva) [22]; preemergence, Rate 125 g/ha", "value": 40}, {"measurement": "Plant response rating, Surinam grass", "setting": "[23]; Preemergence, Rate 500 g/ha", "value": 70}, {"measurement": "Plant response rating, Surinam grass", "setting": "[23]; preemergence, Rate 125 g/ha", "value": 40}, {"measurement": "Plant response rating, Morningglory", "setting": "[24]; Preemergence, Rate 500 g/ha", "value": 0}, {"measurement": "Plant response rating, Morningglory", "setting": "[24]; preemergence, Rate 125 g/ha", "value": 0}]}
